Results on two compounds are retold here after US20230233144A1, “Method for Determining Medication Adherence and Taggants Therefo” (The Regents of the University of Colorado, A Body Corporate, priority 2021, published 2023).

The conditions of data set [1]: in vivo. From the text:
Example 2: An assay for a tenofovir (a PrEP drug) anabolite, tenofovir-diphosphate in red blood cells, which may be collected in dried blood spots (DBS), is disclosed as an adherence assessment. […] This enables assessment of cumulative dosing, indicative of degrees or gradients of adherence, over the preceding 1-2 months for tenofovir-based PrEP. This is analogous to how hemoglobin A1C works for cumulative glucose exposure. […] FIG. 3 illustrates how taggant tenofovir diphosphate concentration in dried blood spots is used in clinical trials to correlate and interpret medication adherence based upon TFV-DP concentration in DBS.

The nature of data set [2]: ATP half-life corresponding value in humans. Conditions: human, in vivo, corresponding to the rat value. The source says: The in vivo ATP pool is large, the half-life of ATP is relatively long, 3 days in rats, corresponding to about 10 days in humans. […] Given the long half-life of ATP, the measurement for gradients of adherence is analogous to hemoglobin A1C as a measure of gradients of glucose exposure over the preceding months.

The nature of data set [3]: Daily 5+ ATP to rats for six days, 5+ ATP/1+ ATP ratio in dried blood spots by mass spectrometry. The conditions noted are these: rat, red blood cells in dried blood spots, 100 mcg, in vivo ATP pool. From the text:
Once each day, blood spot samples were taken from each rat and dried.
The in vivo ATP pool is large, the half-life of ATP is relatively long, 3 days in rats, corresponding to about 10 days in humans.

The structures appear in SMILES notation. Read-outs that look alike come from different tables or passages of the source.

Broadly, the half-life is the time in which the quantity being followed falls by half. With `CC(Cn1cnc2c(N)ncnc21)OCP(=O)(O)OP(=O)(O)OP(=O)(O)O` (stereo in doubt) [TFV-DP, tenofovir-diphosphate], the half-life in data set [1] (human) was 408 h. In addition, in data set [1], the “accumulation from a single dose to steady-state” value turned out to be 25 fold and the “time of build up in DBS until steady-state plateau” value is listed as “approximately 60 days”.
Consider `Nc1ncnc2c1ncn2[C@@H]1O[C@H](COP(=O)(O)OP(=O)(O)OP(=O)(O)O)[C@@H](O)[C@H]1O` [ATP, adenosine triphosphate], for which the half-life in data set [2] is roughly 240 h; in data set [3], 72 h.
